# Experimental data from the NIST ThermoML archive (doi:10.1016/j.fluid.2006.07.015).
# Numbers after ± are expanded uncertainties.
# What was measured:
# [1] = activity coefficient (dimensionless); of the first substance listed, at infinite dilution; xn = mol fraction of the nth substance listed; settings: 101 kPa, Liquid, Chromatography, x1 = 0
# [2] = Crystal; visual observation
SMILES,activity coefficient ([1]; 373.15 K),activity coefficient ([1]; 388.15 K),activity coefficient ([1]; 403.15 K),activity coefficient ([1]; 418.15 K),activity coefficient ([1]; 433.15 K),Normal melting temperature [2] [°C]
"CCCCCCCCCCCCCCCCCCC(CCCCCCCCCCCCCCCCCC)CCCCC(CCCCCCCCCCCCCCCCCC)CCCCCCCCCCCCCCCCCC [19,24-dioctadecyldotetracontane]",,,,,,72 ± 6
C=CCCCCCCCCCC [1-dodecene] + CCCCCCCCCCCCCCCCCCC(CCCCCCCCCCCCCCCCCC)CCCCC(CCCCCCCCCCCCCCCCCC)CCCCCCCCCCCCCCCCCC,0.447 ± 0.033,0.449 ± 0.033,0.453 ± 0.033,0.453 ± 0.033,0.455 ± 0.033,
C=CCCCCCCCCC [1-undecene] + CCCCCCCCCCCCCCCCCCC(CCCCCCCCCCCCCCCCCC)CCCCC(CCCCCCCCCCCCCCCCCC)CCCCCCCCCCCCCCCCCC,0.435 ± 0.033,0.436 ± 0.033,0.435 ± 0.033,0.436 ± 0.033,0.436 ± 0.033,

# The next lines start with the values.
activity coefficient ([1]; 373.15 K),activity coefficient ([1]; 388.15 K),activity coefficient ([1]; 403.15 K),activity coefficient ([1]; 418.15 K),activity coefficient ([1]; 433.15 K),Normal melting temperature [2] [°C],SMILES
0.354 ± 0.035,0.355 ± 0.035,0.356 ± 0.035,0.357 ± 0.035,0.359 ± 0.035,,C=CCCCC [hex-1-ene] + CCCCCCCCCCCCCCCCCCC(CCCCCCCCCCCCCCCCCC)CCCCC(CCCCCCCCCCCCCCCCCC)CCCCCCCCCCCCCCCCCC
0.271 ± 0.036,0.277 ± 0.036,0.279 ± 0.036,0.28 ± 0.036,0.285 ± 0.036,,"C[C@@H]1CCCC[C@@H]1C [cis-1,2-dimethylcyclohexane] + CCCCCCCCCCCCCCCCCCC(CCCCCCCCCCCCCCCCCC)CCCCC(CCCCCCCCCCCCCCCCCC)CCCCCCCCCCCCCCCCCC"
0.28 ± 0.036,0.287 ± 0.036,0.29 ± 0.036,0.288 ± 0.036,0.295 ± 0.036,,"C[C@@H]1CCCC[C@H]1C [trans-1,2-dimethylcyclohexane] + CCCCCCCCCCCCCCCCCCC(CCCCCCCCCCCCCCCCCC)CCCCC(CCCCCCCCCCCCCCCCCC)CCCCCCCCCCCCCCCCCC"
